Like-named read-outs stand apart in the source and are kept apart here.
Legend:
[1] = test system: Staphylococcus aureus; experiment: Antimicrobial susceptibility (MIC, agar dilution); format: cell-based; conditions: Isosensitest agar, 128-1 μg/mL, 37° C. for 24 h
Description: (§1) For each putative antimicrobial, determination of the antimicrobial susceptibility was performed in strict accordance with the recommendations of the British Society for Antimicrobial Chemotherapy. Isosensitest agar (Oxoid) was prepared according to the manufacturer's instructions and sterilized by autoclaving at 116° C. for 20 min. This was then cooled to 50° C. in a waterbath. A 10 mg sample of each antimicrobial was dissolved in 1 mL DMSO. A 256 μL aliquot was added to 19.744 mL of molten Isosensitest agar at 50° C. and mixed well. This was poured into a Petri dish to produce a culture plate containing a final concentration of 128 μg/mL. Smaller volumes of solution (ranging from 128-2 μL) were also incorporated into agar plates in similar fashion to produce a final concentration range of 128-1 μg/mL. A set of control plates was prepared containing DMSO at an identical concentration range without antimicrobial.
(§2) A panel of microorganisms was obtained from the National Collection of Type Cultures (NCTC), Colindale, UK, the National Collection of Pathogenic Fungi (NCPF), Colindale, UK, and the American Type Culture Collection (ATCC), Manassas, Va. USA. The panel included a range of pathogenic species and comprised Bacillus subtillis, Listeria monocytogenes, Staphyloccci epidermidis, Staphylococcus aureus, Staphylococcus aureus (MRSA) and Streptococcis pyogenes, all of which are Gram-positive bacteria. Each strain was cultured onto Columbia agar (Oxoid) and incubated overnight at 37° C. Colonies were then suspended in sterile distilled water (SDW) to produce a suspension of 1.5×10^8 colony forming units CFU/mL using a densitometer. This suspension was then diluted 1/15 in SDW and 1 μL was inoculated onto all test media using a semi-automated multipoint inoculator (final inoculum: 10 000 CFU per spot). All media were incubated at 37° C. for 24 h and examined for the presence of growth. […] All tests were repeated on a separate occasion to ensure reproducibility.
(§3) Determination of the antimicrobial susceptibility of the samples containing the isolated R and S enantiomers was performed as set out in Example 2.

[2] = test system: Staphyloccci epidermidis; experiment: Antimicrobial susceptibility (MIC, agar dilution); format: cell-based; conditions: Isosensitest agar, 128-1 μg/mL, 37° C. for 24 h
Description: as §1, §2, §3

[3] = test system: Staphylococcus aureus (MRSA); experiment: Antimicrobial susceptibility (MIC, agar dilution); format: cell-based; conditions: Isosensitest agar, 128-1 μg/mL, 37° C. for 24 h
Description: as §1, §2, §3

[4] = test system: Streptococcis pyogenes; experiment: Antimicrobial susceptibility (MIC, agar dilution); format: cell-based; conditions: Isosensitest agar, 128-1 μg/mL, 37° C. for 24 h
Description: as §1, §2, §3

[5] = test system: Bacillus subtilis; experiment: Antimicrobial susceptibility (MIC, agar dilution); format: cell-based; conditions: Isosensitest agar, 128-1 μg/mL, 37° C. for 24 h
Description: as §1, §2, §3

[6] = test system: Listeria monocytogenes; experiment: Antimicrobial susceptibility (MIC, agar dilution); format: cell-based; conditions: Isosensitest agar, 128-1 μg/mL, 37° C. for 24 h
Description: as §1, §2, §3

[7] = test system: RSV; experiment: Plaque reduction assay; format: cell-based, Human RSV (Respiratory Syncytial Virus); conditions: A549, 10 μM added 3-4 hours before RSV; control titre 4.5×10^5
Description: (§4) Notes Cell obtained from ATCC and virus prep was subjected to one round of centrifugation through a 40% (V/V) glycerol to remove any interferon produced from infected cells. Growth medium was Dulbecco's modified Eagle's medium (DMEM) with 10% (v/v) foetal calf serum (FCS), Viral maintenance medium was DMEM+2% (v/v) FCS
A549 cells were seeded into a T25 flask and grown until 60-70% confluent. To one set of flasks (n=3) 5-Phenyl-S-3-amino-2,3-dihydro-1H-1,4-benzodiazepin-2-one (5) in DMSO was added at a concentration of 10 μM and allowed to incubate for 3-4 hours before the addition of RSV at an […] and incubated until extensive cytopathic effect (cpe) was evident, usually after 3 days. The concentration of 5-Phenyl-S-3-amino-2,3-dihydro-1H-1,4-benzodiazepin-2-one (5) was kept constant by replacing the medium each day (RSV is largely cell associated). After which virus was harvested by homogenising the cells in a final volume of 1 ml. The viral titre was determined by plaque assay and staining after 8 days. A control assay was conducted using DMSO in place of the DMSO solution of 5-Phenyl-S-3-amino-2,3-dihydro-1H-1,4-benzodiazepin-2-one (5). […]

[8] = test system: RSV A2 strain; experiment: Infected cell viability assay (A549 only); format: cell-based, Human RSV (Respiratory Syncytial Virus); conditions: human respiratory syncytial virus, moi 0.1, 8 days
Description: as §4
96 wells plates were set up as previously described. As before a 2 fold serial dilution of 5-Phenyl-S-3-amino-2,3-dihydro-1H-1,4-benzodiazepin-2-one (5) was added prior to addition of virus at a multiplicity of infection (moi) of 0.1, as determined by a plaque assay, in a volume of 50 μl (starting conc 100 μM). After incubating for 4 hours RSV A2 strain was added at an moi of 0.1 maintaining the concentration of 5-Phenyl-S-3-amino-2,3-dihydro-1H-1,4-benzodiazepin-2-one (5). As before, DMSO was the control. The final lane was a mock infected minus 5-Phenyl-S-3-amino-2,3-dihydro-1H-1,4-benzodiazepin-2-one (5) to show viability of cells after 8 days incubation.
Every two days for up to 8 days the media plus drug was replaced to maintain activity, after 8 days cell viability was assayed by cell staining with methylene blue. Each experiment was performed twice with similar results, see FIG. 14.
An alternative experiment was set up as before except virus, at an moi of 0.1, was added before the drug and allowed to incubate for 4 hours. […]

[9] = Cell cytotoxicity CC50; format: cell-based; conditions: human, 6-8 days, top concentration 100 μM, read-out: CC50 (concentration at which 50% cell toxicity is observed)
Description: as §4
Cell Cytotoxicity—CC50 (concentration at which 50% cell toxicity is observed):
A549 cells and HeLa cells were used to seed a set of 96 well plates grown until 50% confluent, a 2 fold serial dilution of 5-Phenyl-S-3-amino-2,3-dihydro-1H-1,4-benzodiazepin-2-one (5) was performed on each cell line with DMSO (only) as control starting with 100 μM of 5-Phenyl-S-3-amino-2,3-dihydro-1H-1,4-benzodiazepin-2-one (5). Medium used was DMEM+2% FCS (normal medium for viral growth).
Cells were allowed to grow for 6-8 days to mimic a TCID50 assay after which cell viability was determined by adding Almar blur (similar to XTT) and reading at 600 nm (excitation 540 nm). No significant difference was observed between cells treated with 5-Phenyl-S-3-amino-2,3-dihydro-1H-1,4-benzodiazepin-2-one (5) and the DMSO control. No significant difference was observed between HeLa and A549 cells.

[10] = aqueous; cited from earlier work

## COC(=O)CNc1c(F)c(F)nc(F)c1F
other
  melting point: 67.8 to 68.7 °C

## O=C1Nc2ccccc2C(c2ccccc2)=N[C@@H]1Nc1c(F)c(F)nc(F)c1F (single isomer, unassigned; enantiomer 5) [S enantiomer, 5-Phenyl-S-3-[(tetrafluoropyridin-4-yl)amino]-2,3-dihydro-1H-1,4-benzodiazepin-2-one]
[1]
  antibacterial activity (by minimum inhibitory concentration): effective
[2]
  antibacterial activity (by minimum inhibitory concentration): effective
[3]
  antibacterial activity (by minimum inhibitory concentration): effective
[4]
  antibacterial activity (by minimum inhibitory concentration): effective
[5]
  antibacterial activity (by minimum inhibitory concentration): effective
[6]
  antibacterial activity (by minimum inhibitory concentration): effective

## O=C1C(=O)N(c2c(F)c(F)nc(F)c2F)c2ccccc21
other
  melting point: 160.3 to 162.6 °C

## O=C1Nc2ccccc2C(c2ccccc2)=NC1Nc1c(F)c(F)nc(F)c1F (racemic) [Compound 5, 5-Phenyl-3-[(tetrafluoropyridin-4-yl)amino]-2,3-dihydro-1H-1,4-benzodiazepin-2-one]
[1]
  antibacterial activity (by minimum inhibitory concentration): exhibited antibacterial activity
[1]; listed as racemate
  antibacterial activity (by minimum inhibitory concentration): effective
[2]
  antibacterial activity (by minimum inhibitory concentration): exhibited antibacterial activity
[2]; listed as racemate
  antibacterial activity (by minimum inhibitory concentration): effective
[3]
  antibacterial activity (by minimum inhibitory concentration): exhibited antibacterial activity
[3]; listed as racemate
  antibacterial activity (by minimum inhibitory concentration): effective
[4]
  antibacterial activity (by minimum inhibitory concentration): exhibited antibacterial activity
[4]; listed as racemate
  antibacterial activity (by minimum inhibitory concentration): effective
[5]
  antibacterial activity (by minimum inhibitory concentration): not
[6]
  antibacterial activity (by minimum inhibitory concentration): exhibited antibacterial activity
[6]; listed as racemate
  antibacterial activity (by minimum inhibitory concentration): effective
[7]
  viral titre after exposure: 2.3×10^3 viral infectivity units
[8]; A549, compound added 4 hours before virus, Reed and Meunch, read-out: half maximal effective concentration (EC50)
  EC50: 2400 nM
[8]; A549, virus added 4 hours before the drug, Reed & Meunch, read-out: EC50
  EC50: ~3000 nM
[9]; A549 cells
  CC50: ≥ 100000 nM
[9]; HeLa cells
  CC50: ≥ 100000 nM

## O=C1Nc2ccccc2C(c2ccccc2)=N[C@H]1Nc1c(F)c(F)nc(F)c1F [R enantiomer, 5-Phenyl-R-3-[(tetrafluoropyridin-4-yl)amino]-2,3-dihydro-1H-1,4-benzodiazepin-2-one]
[1]
  antibacterial activity (by minimum inhibitory concentration): effective
[2]
  antibacterial activity (by minimum inhibitory concentration): effective
[3]
  antibacterial activity (by minimum inhibitory concentration): effective

## O=c1n(-c2c(F)c(F)nc(F)c2F)c2ccccc2n1-c1c(F)c(F)nc(F)c1F
other
  melting point: 154.9 to 156 °C

## O=C1Nc2ccc(Cl)cc2C(c2ccccc2Cl)=NC1O (centres unmarked) [Lorazepam]
[10]
  pKa: ~13.0

From US10406166B2, “Antimicrobial compound” (priority 2015, dated 2019)
